Reference: US12630553B2 (Ascentage Pharma (Suzhou) Co., Ltd., priority 2020, dated 2026)
Structures can show the parent of a compound that is named as a salt.

Columns and labels:
[1] = Stability test of salts of compound 1 (HPLC, XRD); type: physicochemical
Experimental: 30 mg of the compound was weighed and added into an 8 mL glass bottle, and then was placed under the condition of room temperature (25° C., closed), high humidity (room temperature/75% RH, open) and light (25° C. closed, white light: 5000 Lux, ultraviolet 282 μW/cm2). samples were taken on the 5th, 10th, and 30th day for detection (HPLC, XRD).

[2] = Dynamic water adsorption (DVS) test of compound 1 solid forms; type: physicochemical; details: about 10 mg solid form
Experimental: About 10 mg of the solid form of the compound 1 was taken for dynamic water adsorption (DVS) test.

[3] = Illumination 5K lux closed, day 5
[4] = Illumination 5K lux closed, day 10

| SMILES | TRS (%) ([1]; 25° C. closed, day 5) | XPRD ([1]; 25° C. closed, day 5) | TRS (%) ([1]; 25° C. closed, day 10) | XPRD ([1]; 25° C. closed, day 10) | TRS (%) ([1]; 25° C. closed, day 30) | XPRD ([1]; 25° C. closed, day 30) | TRS (%) ([1]; 25° C./75% RH open, day 5) | XPRD ([1]; 25° C./75% RH open, day 5) | TRS (%) ([1]; 25° C./75% RH open, day 10) | XPRD ([1]; 25° C./75% RH open, day 10) | TRS (%) ([1]; 25° C./75% RH open, day 30) | XPRD ([1]; 25° C./75% RH open, day 30) | TRS (%) [1, 3] | XPRD [1, 3] | TRS (%) [1, 4] | XPRD [1, 4] | TRS (%) ([1]; Initial sample, day 0) | XPRD ([1]; Initial sample, day 0) | XRPD after DVS [2] |
| --- | --- | --- | --- | --- | --- | --- | --- | --- | --- | --- | --- | --- | --- | --- | --- | --- | --- | --- | --- |
| CN[C@@H](C)C(=O)N[C@H]1CN(S(=O)(=O)c2cccc(S(=O)(=O)N3CC[C@H]4CC[C@@H](C(=O)NC(c5ccccc5)c5ccccc5)N4C(=O)[C@@H](NC(=O)[C@H](C)NC)C3)c2)CC[C@H]2CCC(C(=O)NC(c3ccccc3)c3ccccc3)N2C1=O (stereo partly drawn) [Compound 1 di-p-toluenesulfonate amorphous Form XVI] | 1.66% | Amorphous | 1.71% | Amorphous | 1.80% | Amorphous | 1.56% | Amorphous | 1.66% | Amorphous | 1.88% | Amorphous | 1.89% | Amorphous | 2.40% | Amorphous | 1.66% | Amorphous |  |
| CN[C@@H](C)C(=O)N[C@H]1CN(S(=O)(=O)c2cccc(S(=O)(=O)N3CC[C@H]4CC[C@@H](C(=O)NC(c5ccccc5)c5ccccc5)N4C(=O)[C@@H](NC(=O)[C@H](C)NC)C3)c2)CC[C@H]2CCC(C(=O)NC(c3ccccc3)c3ccccc3)N2C1=O (stereo partly drawn) [compound 1 dihydrochloride amorphous form V] | 0.72% | Amorphous | 0.77% | Amorphous | 0.83% | Amorphous | 0.81% | Amorphous | 0.77% | Amorphous | 0.79% | Amorphous | 1.81% | Amorphous | 2.54% | Amorphous | 0.73% | Amorphous | No change |
| CN[C@@H](C)C(=O)N[C@H]1CN(S(=O)(=O)c2cccc(S(=O)(=O)N3CC[C@H]4CC[C@@H](C(=O)NC(c5ccccc5)c5ccccc5)N4C(=O)[C@@H](NC(=O)[C@H](C)NC)C3)c2)CC[C@H]2CCC(C(=O)NC(c3ccccc3)c3ccccc3)N2C1=O (stereo partly drawn) [Compound 1 dimethanesulfonate crystalline Form XVIII] | 2.51% | Crystalline Form | 2.57% | Crystalline | 2.55% | Crystalline |  |  |  |  |  |  | 2.63% | Crystalline | 2.64% | Crystalline | 2.44% | Crystalline | No change |
| CN[C@@H](C)C(=O)N[C@H]1CN(S(=O)(=O)c2cccc(S(=O)(=O)N3CC[C@H]4CC[C@@H](C(=O)NC(c5ccccc5)c5ccccc5)N4C(=O)[C@@H](NC(=O)[C@H](C)NC)C3)c2)CC[C@H]2CCC(C(=O)NC(c3ccccc3)c3ccccc3)N2C1=O (stereo partly drawn) [XIV] |  |  |  |  |  |  |  |  |  |  |  |  |  |  |  |  |  |  | No change |
| CN[C@@H](C)C(=O)N[C@H]1CN(S(=O)(=O)c2cccc(S(=O)(=O)N3CC[C@H]4CC[C@@H](C(=O)NC(c5ccccc5)c5ccccc5)N4C(=O)[C@@H](NC(=O)[C@H](C)NC)C3)c2)CC[C@H]2CCC(C(=O)NC(c3ccccc3)c3ccccc3)N2C1=O (stereo partly drawn) [compound 1 disulfate amorphous form XXIII] | 2.45% | Amorphous | 2.72% | Amorphous | 4.83% | Amorphous | 2.69% | Amorphous | 3.14% | Amorphous | 5.13% | Amorphous | 3.66% | Amorphous | 5.50% | Amorphous | 1.96% | Amorphous |  |
